# Patent US8143290B2, “Chemical compounds 572” (AstraZeneca AB, priority 2006, dated 2012)
# Biological target: T1, recombinant human GR (Homo sapiens, UniProt P04150)
# T1 construct: purchased Panvera/Invitrogen P2812 (kit P2893)
# T1 sequence (P04150 1-777): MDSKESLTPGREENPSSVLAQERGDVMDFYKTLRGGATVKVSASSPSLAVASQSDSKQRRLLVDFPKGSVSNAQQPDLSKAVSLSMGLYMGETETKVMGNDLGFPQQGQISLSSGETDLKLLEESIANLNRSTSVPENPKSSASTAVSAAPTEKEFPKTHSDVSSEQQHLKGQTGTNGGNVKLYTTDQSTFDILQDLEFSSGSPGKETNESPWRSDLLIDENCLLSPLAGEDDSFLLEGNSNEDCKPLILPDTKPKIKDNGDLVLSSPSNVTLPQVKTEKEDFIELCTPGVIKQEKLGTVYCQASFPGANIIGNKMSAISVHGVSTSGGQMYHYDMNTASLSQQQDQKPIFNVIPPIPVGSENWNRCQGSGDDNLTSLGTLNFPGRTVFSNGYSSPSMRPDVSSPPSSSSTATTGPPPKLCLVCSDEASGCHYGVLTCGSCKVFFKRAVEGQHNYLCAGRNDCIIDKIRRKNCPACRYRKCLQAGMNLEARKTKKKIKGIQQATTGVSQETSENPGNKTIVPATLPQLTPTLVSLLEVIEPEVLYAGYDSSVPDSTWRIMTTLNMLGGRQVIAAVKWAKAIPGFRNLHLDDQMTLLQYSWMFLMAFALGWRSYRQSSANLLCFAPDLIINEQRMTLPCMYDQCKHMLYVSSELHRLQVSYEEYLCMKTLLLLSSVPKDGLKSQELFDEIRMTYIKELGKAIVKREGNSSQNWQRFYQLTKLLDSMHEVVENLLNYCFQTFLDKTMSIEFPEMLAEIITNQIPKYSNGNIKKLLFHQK
# Test: Human Glucocorticoid Receptor (GR) Assay, fluorescence polarization
# Assay type: binding
# Details: GS Red tracer, incubated 2 h at r.t., XLfit model 205, read-out: GRhuFL_FP_v2 Mean IC50
# Method in brief: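 Fluorescence polarization kit assay: recombinant GR and GS Red fluorescent ligand with Stabilizing Peptide and DTT in potassium phosphate/sodium molybdate/EDTA screening buffer. Plates incubated 2 h in the dark at r.t.; DMSO served as 0% and dexamethasone as 100% control.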
row,Compound,IC50
1,"COC(=O)c1ccc(-n2ncc3cc(O[C@H](c4ccccc4)[C@H](C)NC(=O)c4ccco4)ccc32)cc1 [Example 116, Methyl 4-(5-{(1R,2S)-2-[(2-furylcarbonyl)amino]-1-phenylpropoxy}-1H-indazol-1-yl)benzoate]",7.7 nM
2,"COc1cccc([C@@H](Oc2ccc3c(cnn3-c3ccc(F)cc3)c2)[C@H](C)NC(=O)c2ncsc2C)c1 [Example 288, N-[(1R,2S)-1-[1-(4-fluorophenyl)indazol-5-yl]oxy-1-(3-methoxyphenyl)propan-2-yl]-5-methyl-1,3-thiazole-4-carboxamide]",5 nM
3,"C[C@H](NC(=O)C1(C)CC1)[C@H](Oc1ccc2c(cnn2-c2ccc(F)cc2)c1)c1ccc(C(C)(C)C)cc1 [Example 226, N-[(1R,2S)-1-[1-(4-fluorophenyl)indazol-5-yl]oxy-1-(4-tert-butylphenyl)propan-2-yl]-1-methyl-cyclopropane-1 carboxamide]",7.2 nM
4,"Cc1ccc([C@@H](Oc2ccc3c(cnn3-c3ccc(F)cc3)c2)[C@H](C)NC(=O)C(C)(C)F)cc1F [Example 242, 2-fluoro-N-[(1R,2S)-1-(3-fluoro-4-methyl-phenyl)-1-[1-(4-fluorophenyl)indazol-5-yl]oxy-propan-2-yl]-2-methyl-propanamide]",5.5 nM
5,"COc1cccc([C@@H](Oc2ccc3c(cnn3-c3ccc(F)cc3)c2)[C@H](C)NC(=O)c2ccccn2)c1 [Example 89, N-((1R,2S)-1-(1-(4-fluorophenyl)-1H-indazol-5-yloxy)-1-(3-methoxyphenyl)propan-2-yl)picolinamide]",4.4 nM
6,"COc1cccc([C@@H](Oc2ccc3c(cnn3-c3ccc(F)cc3)c2)[C@H](C)NC(=O)CNC(C)=O)c1 [Example 269, N-[[(1R,2S)-1-[1-(4-fluorophenyl)indazol-5-yl]oxy-1-(3-methoxyphenyl)propan-2-yl]carbamoylmethyl]acetamide]",12 nM
7,"CC(C)C(=O)NC(=O)C(Oc1ccc2c(cnn2-c2ccc(F)cc2)c1)c1ccccc1 (stereo not shown) [Example 137, N-[2-[1-(4-fluorophenyl)indazol-5-yl]oxy-2-phenyl-acetyl]-2-methyl-propanamide]",360 nM

# The next compounds have a lower IC50 than those just listed; values first:
row,IC50,Compound
1,3.9 nM,"COc1cccc([C@@H](Oc2ccc3c(cnn3-c3ccc(Cl)cc3)c2)[C@H](C)NC(=O)C(C)(F)F)c1 [Example 128, N-((1R,2S)-1-(1-(4-chlorophenyl)-1H-indazol-5-yloxy)-1-(3-methoxyphenyl)propan-2-yl)-2,2-difluoropropanamide]"
2,3.6 nM,C[C@H](NC(=O)NC1CCCC1)[C@H](Oc1ccc2c(cnn2-c2ccc(F)cc2)c1)c1ccccc1 [Example 104]
3,3.7 nM,"Cc1cc(F)ccc1[C@@H](Oc1ccc2c(cnn2-c2ccc(F)cc2)c1)[C@H](C)NC(=O)C(C)(C)C [Example 179, N-[(1R,2S)-1-(4-fluoro-2-methyl-phenyl)-1-[1-(4-fluorophenyl)indazol-5-yl]oxy-propan-2-yl]-2,2-dimethyl-propanamide]"
4,4.2 nM,"Cc1cc(F)ccc1[C@@H](Oc1ccc2c(cnn2-c2ccc(F)cc2)c1)[C@H](C)NC(=O)C(F)(F)F [Example 156, 2,2,2-trifluoro-N-[(1R,2S)-1-(4-fluoro-2-methyl-phenyl)-1-[1-(4-fluorophenyl)indazol-5-yl]oxy-propan-2-yl]acetamide]"
5,3.2 nM,"CCSCc1ccc([C@@H](Oc2ccc3c(cnn3-c3ccc(F)cc3)c2)[C@H](C)NC(=O)CO)cc1 [Example 27, N-[(1R,2S)-1-[4-(ethylsulfanylmethyl)phenyl]-1-[1-(4-fluorophenyl)indazol-5-yl]oxy-propan-2-yl]-2-hydroxy-acetamide]"
6,3.3 nM,"Cc1cnc(C(=O)N[C@@H](C)[C@H](Oc2ccc3c(cnn3-c3ccc(F)cc3)c2)c2cccc(F)c2)s1 [Example 195, N-[(1R,2S)-1-(3-fluorophenyl)-1-[1-(4-fluorophenyl)indazol-5-yl]oxy-propan-2-yl]-5-methyl-1,3-thiazole-2-carboxamide]"
